Values quoted from earlier work as cited in patent US20160168384A1, “PORPHYRINOID COMPONENTS, METHOD AND APPARATUS FOR WATER PHOTODISINFECTION” (NIMARTECH LIMITED, priority 2013, published 2016).

Tested on: faecal coliforms
Details: wastewater; micromolar porphyrin; visible light or sunlight, about 4 hours

Structure (SMILES): C[n+]1ccc(-c2c3nc(c(-c4cc[n+](C)cc4)c4ccc([nH]4)c(-c4cc[n+](C)cc4)c4nc(c(-c5cc[n+](C)cc5)c5ccc2[nH]5)C=C4)C=C3)cc1 [Sample C1, meso-tetra(N,N,N,N-methyl-pyridyl)porphine]
- decrease of coliform counts: at least 5 logs
